Results reported in ChEMBL document CHEMBL1201862, “PubChem BioAssay data set” (2004).
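Step 1: Grow cells in 96-well plates. Step 2: Expose to compound for 48 hours at 5 concentrations. Step 3: Interpolate endpoints linearly; if unreached, use highest concentration. Here, GI50 denotes the concentration required for 50% inhibition of growth.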 The source made the active and inactive calls. No stated cut-off is given here; in the data, active = GI50 up to about 1.1 µM and inactive = higher.

Experiments:
Experiment in all cases: DTP human tumour cell line panel, 48 h
[1] = system: SR
[2] = system: UACC-62
[3] = system: SK-MEL-28
[4] = system: NCI-H23
[5] = system: NCI-H522
[6] = system: M19-MEL
[7] = system: TK-10
[8] = system: SF-539
[9] = system: SNB-19
[10] = system: U-251
[11] = system: OVCAR-4
[12] = system: HT-29
[13] = system: HCT-116
[14] = system: HOP-62
[15] = system: NCI-H460
[16] = system: RPMI-8226
[17] = system: DU-145
[18] = system: NCI/ADR-RES
[19] = system: PC-3
[20] = system: BT-549

Measured: GI50

CC(=O)O/N=C/c1ncccc1CO
inactive: [1] > 100 µM | [2] > 100 µM | [3] > 100 µM | [4] > 100 µM | [5] > 100 µM | [6] > 100 µM | [7] > 100 µM | [8] > 100 µM | [9] > 100 µM | [10] > 100 µM | [11] > 100 µM | [12] > 100 µM | [13] > 100 µM | [14] > 100 µM | [15] > 100 µM

CC1(C)OC2CC3COC(=O)C3CC2O1 (configuration not stated)
inactive: [1] > 100 µM | [2] > 100 µM | [3] > 100 µM | [4] > 100 µM | [5] > 100 µM | [6] > 100 µM | [7] > 100 µM | [16] > 100 µM | [8] > 100 µM | [10] > 100 µM | [11] > 100 µM | [12] > 100 µM | [13] > 100 µM | [14] > 100 µM | [15] > 100 µM

COc1ccc2c(-c3cc4ccccc4o3)cc(=O)oc2c1
inactive: [17] > 74.8 µM | [1] > 100 µM | [2] 67.5 µM | [3] 53.7 µM | [4] 52.1 µM | [18] 24.7 µM | [5] 37.2 µM | [19] 73.5 µM | [6] > 100 µM | [7] 21.7 µM | [16] > 88.7 µM | [8] 16.7 µM | [9] 26.1 µM | [10] 24.3 µM | [11] 22.8 µM | [12] > 78.2 µM | [13] 42.3 µM | [14] 13.3 µM | [20] 34.1 µM | [15] 44.7 µM

O=C(Nc1c(O)[nH]c(=S)[nH]c1=O)c1ccco1
inactive: [1] > 100 µM | [2] > 100 µM | [3] > 100 µM | [4] > 100 µM | [5] > 100 µM | [6] > 100 µM | [7] > 100 µM | [16] > 100 µM | [8] > 100 µM | [9] > 100 µM | [10] > 100 µM | [11] > 100 µM | [12] > 100 µM | [13] > 100 µM | [14] > 100 µM | [15] > 100 µM

Cc1ccc(S(=O)(=O)OCC23CCC(C2)C2CC23)cc1 (configuration not stated)
inactive: [1] > 100 µM | [2] > 100 µM | [3] > 100 µM | [4] > 100 µM | [6] > 100 µM | [7] > 100 µM | [16] 90.4 µM | [9] > 100 µM | [10] > 100 µM | [11] > 100 µM | [12] > 100 µM | [13] > 100 µM | [14] > 100 µM | [15] > 100 µM

N#C/C(=C\c1ccc(O)c(O)c1)c1c(C#N)c(N)nn1-c1ccccc1
inactive: [2] 3.81 µM | [3] 20 µM | [4] 7.43 µM | [5] 3.32 µM | [6] 7.4 µM | [7] 21.8 µM | [8] 6.64 µM | [9] 7.19 µM | [10] 5.36 µM | [11] 17.2 µM | [12] 22 µM | [13] 5.48 µM | [14] 10 µM | [15] 10.8 µM

COc1cc2nc(NCCCCCNC(=O)c3ccco3)nc(N)c2cc1OC
inactive: [2] 22.2 µM | [3] 19.2 µM | [4] 87.7 µM | [5] 25.4 µM | [6] 23 µM | [7] 53.1 µM | [16] 38 µM | [8] 19.6 µM | [9] 38.2 µM | [10] 20.5 µM | [11] 29.3 µM | [12] 33.9 µM | [14] 24.2 µM | [15] 32 µM

O=[N+]([O-])c1ccccc1/C=N/C12CC3CC(CC(C3)C1)C2
inactive: [2] > 100 µM | [3] > 100 µM | [4] > 100 µM | [5] > 100 µM | [6] > 100 µM | [7] > 100 µM | [16] 34 µM | [8] 80.2 µM | [9] 49.9 µM | [10] > 100 µM | [11] 87.7 µM | [12] 34.3 µM | [13] 39.3 µM | [14] 99.5 µM | [15] > 100 µM

C=C(Br)C(C)(Cl)CCC(Br)C(C)(C)Br (configuration not stated)
inactive: [1] 22.1 µM | [2] 47.6 µM | [4] 72.8 µM | [5] 43.8 µM | [6] 34 µM | [7] > 100 µM | [16] 25.9 µM | [8] > 100 µM | [10] 88.9 µM | [11] > 100 µM | [12] 47.2 µM | [13] 31.9 µM | [14] > 100 µM | [15] 47.5 µM

COc1cc(C(C)O)c[n+](CCC2CNc3ccccc32)c1 (configuration not stated)
inactive: [1] > 100 µM | [2] > 100 µM | [4] > 100 µM | [5] > 100 µM | [6] > 100 µM | [16] > 100 µM | [8] > 100 µM | [9] > 100 µM | [10] > 100 µM | [11] > 100 µM | [12] 71.6 µM | [13] > 100 µM | [14] > 100 µM | [15] > 100 µM

CCOC(=N)/C(=C1\OC(=N)C(c2ccc(Cl)cc2)=C1O)c1ccc(Cl)cc1
inactive: [1] 16.7 µM | [2] 15.5 µM | [3] 16 µM | [4] 15.3 µM | [5] 15 µM | [6] 16.9 µM | [7] 28.1 µM | [16] 14.8 µM | [8] 16.5 µM | [9] 22.7 µM | [10] 16.8 µM | [11] 11.8 µM | [12] 23.2 µM | [13] 16.9 µM | [14] 22.5 µM | [15] 21.6 µM

CN(C)C(=O)c1ccc([N+](=O)[O-])cc1
inactive: [1] > 100 µM | [2] > 100 µM | [3] > 100 µM | [4] > 100 µM | [5] > 100 µM | [6] > 100 µM | [7] > 100 µM | [8] > 100 µM | [9] > 100 µM | [10] > 100 µM | [11] > 100 µM | [12] > 100 µM | [13] > 100 µM | [14] > 100 µM | [15] > 100 µM

Nc1nc2c3c(ncn3CC(O)CO2)n1 (configuration not stated)
inactive: [1] > 100 µM | [2] > 100 µM | [3] > 100 µM | [4] > 100 µM | [5] > 100 µM | [6] 6.31 µM | [7] > 100 µM | [16] > 100 µM | [8] > 100 µM | [9] > 100 µM | [10] > 100 µM | [11] > 100 µM | [12] 7.6 µM | [13] > 100 µM | [14] > 100 µM | [15] > 100 µM

O/N=C1/CCC/C1=C\c1ccccc1
inactive: [1] 12.4 µM | [2] > 100 µM | [3] > 100 µM | [4] > 100 µM | [5] 31 µM | [6] > 10 µM | [7] > 100 µM | [16] > 100 µM | [8] > 100 µM | [9] > 100 µM | [10] > 100 µM | [11] > 100 µM | [12] > 10 µM | [13] > 100 µM | [14] > 100 µM | [15] > 100 µM

c1ccc2c(c1)NC1(N3CCCCC3)CCCCC21 (configuration not stated)
inactive: [17] 57.9 µM | [1] 32 µM | [2] 48.9 µM | [3] 49.3 µM | [4] 50.5 µM | [18] 91.8 µM | [5] 35.8 µM | [19] 39.4 µM | [7] > 100 µM | [16] 39.1 µM | [8] > 100 µM | [9] 51.5 µM | [10] 41.2 µM | [11] 56.4 µM | [12] 39.4 µM | [13] 37.9 µM | [14] > 100 µM | [20] 53 µM | [15] 50.6 µM

CCCOc1ccc(/C=C/C2=[N+](CCO)CCO2)cc1
inactive: [17] > 100 µM | [1] > 100 µM | [2] > 100 µM | [3] > 100 µM | [4] > 100 µM | [18] > 100 µM | [5] > 100 µM | [19] > 100 µM | [7] > 100 µM | [16] > 100 µM | [8] > 100 µM | [9] > 100 µM | [10] > 100 µM | [11] > 100 µM | [12] > 100 µM | [13] > 100 µM | [14] > 100 µM | [20] > 100 µM | [15] > 100 µM
